Drawing on US12227501B2, “3-amino-2-[2-(acylamino)pyridin-4-yl]-1,5,6,7-tetrahydro-4h-pyrrolo[3,2-c]pyridin-4-one as CSNK1 inhibitors” (Bayer Aktiengesellschaft, priority 2019, dated 2025), this text covers IC50 for 9 compounds.

“And” between values parts separate entries of the source, which are not always exact repeats. Identical values can stand only once. Counter-ions that a name gives are not always drawn. Like-named read-outs stand apart in the source and are kept apart here.

Holding throughout (format): biochemical
Test [1] has as its target T1, human CSNK1A1 (Homo sapiens (Human), UniProt P48729). Nature of the test: CSNK1A1 High ATP Assay (ADP-Glo, 1 mM ATP). The settings on record: read-out: CSNK1A1 high ATP assay IC50 [mol/l] (median). As to the method:
CSNK1A1-inhibitory activity of compounds of the present invention in presence of 1 mM adenosine-tri-phosphate (ATP) was quantified employing the CSNK1A1-high-ATP-assay as described in the following paragraphs. In essence, the enzyme activity is measured by quantification of the adenosine-di-phosphate (ADP), which is generated as a co-product of the enzyme reaction, via the “ADP-Glo™ Kinase Assay” kit from the company Promega. This detection system works as follows: In a first step the ATP not consumed in the kinase reaction is quantitatively converted to cAMP employing an adenylate cyclase (“ADP-Glo-reagent”), then the adenylate cyclase is stopped and the ADP generated in the kinase reaction converted to ATP which generates in a luciferase-based reaction a glow-luminescence signal (“Kinase Detection Reagent”).
Recombinant fusion protein of N-terminal Glutathion-S-Transferase (GST) and full-length human CSNK1A1, expressed by baculovirus infected insect cells and purified via Glutathion affinity chromatography, was purchased from Life Technologies (product no. PV4174) and used as enzyme. As substrate for the kinase reaction the biotinylated peptide biotin-Ahx-KRRRAL-pS-VASLPGL (C-terminus in amide form) was used which can be purchased e.g. from the company Biosyntan (Berlin-Buch, Germany).
For the assay 50 nl of a 100 fold concentrated solution of the test compound in DMSO was pipetted into a white low volume 384-well microtiter plate (Greiner Bio-One, Frickenhausen, Germany), 2 μL of a solution of CSNK1A1 in aqueous assay buffer [50 mM HEPES pH 7.5, 10% (v/v) glycerol, 10 mM MgCl2, 50 mM NaCl, 1 mM dithiothreitol, 0.01% (w/v) bovine serum albumin, 0.01% (v/v) Triton X-100] were added and the mixture was incubated for 15 min at 22° C. to allow pre-binding of the test compounds to the enzyme before the start of the kinase reaction. […] The concentration of CSNK1A1 was adjusted depending of the activity of the enzyme lot and was chosen appropriate to have the assay in the linear range, a typical concentration is about 0.4 ng/μL. The reaction was stopped by the addition of 2.5 μL of “ADP-Glo-reagent” (1:1.5 fold diluted with water) and the resulting mixture was incubated at 22° C. for 1 h to convert the ATP not consumed in the kinase reaction completely […]. Subsequently 2.5 μL of the “kinase detection reagent” (1.2 fold more concentrated than recommended by the producer) were added, the resulting mixture was incubated at 22° C. for 1 h and then the luminescence measured with a suitable measurement instrument (e.g. Viewlux™ from Perkin-Elmer). The amount of emitted light was taken as a measure for the amount of ADP generated and thereby for the activity of the CSNK1A1.
A general note: ADP-Glo first removes unused ATP, then detects ADP through luciferase.

The target of test [2] is wild-type Epidermal Growth Factor Receptor (EGFR) (Homo sapiens (Human), UniProt P00533). The experiment in a line: WT-EGFR Kinase Assay (TR-FRET, 2 mM ATP).
wild-type Epidermal Growth Factor Receptor (EGFR), sequence (P00533 669-1210): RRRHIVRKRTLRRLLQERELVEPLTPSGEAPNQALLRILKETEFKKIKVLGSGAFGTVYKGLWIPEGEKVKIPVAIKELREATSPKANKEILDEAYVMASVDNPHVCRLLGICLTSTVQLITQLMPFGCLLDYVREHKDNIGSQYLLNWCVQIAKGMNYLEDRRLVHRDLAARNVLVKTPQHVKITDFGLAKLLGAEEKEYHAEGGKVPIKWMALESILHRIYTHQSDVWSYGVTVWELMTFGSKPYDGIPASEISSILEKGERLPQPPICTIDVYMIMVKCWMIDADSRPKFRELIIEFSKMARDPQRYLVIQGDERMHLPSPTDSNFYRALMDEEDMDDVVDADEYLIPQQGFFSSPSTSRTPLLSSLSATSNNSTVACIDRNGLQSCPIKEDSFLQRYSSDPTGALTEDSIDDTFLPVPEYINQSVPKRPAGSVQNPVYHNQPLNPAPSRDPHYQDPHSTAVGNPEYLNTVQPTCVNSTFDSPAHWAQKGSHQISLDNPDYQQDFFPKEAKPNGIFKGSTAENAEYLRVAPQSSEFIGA
The target in test [3] is T1, human CSNK1A1. Nature of the test: CSNK1A1 Assay 2 (ADP-Glo, 1 μM ATP). To be noted: substrate biotin-Ahx-KRRRAL-pS-VASLPGL, read-out: CSNK1A1 Assay 2 IC50 [mol/l] (median). How it is done: CSNK1A1-inhibitory activity of compounds of the present invention in presence of 1 μM adenosine-tri-phosphate (ATP) was quantified employing the CSNK1A1 assay as described in the following paragraphs. In essence, the enzyme activity is measured by quantification of the adenosine-di-phosphate (ADP), which is generated as a co-product of the enzyme reaction, via the “ADP-Glo™ Kinase Assay” kit from the company Promega. This detection system works as follows: In a first step the ATP not consumed in the kinase reaction is quantitatively converted to cAMP employing an adenylate cyclase (“ADP-Glo-reagent”), then the adenylate cyclase is stopped and the ADP generated in the kinase reaction converted to ATP which generates in a luciferase-based reaction a glow-luminescence signal (“Kinase Detection Reagent”). Recombinant fusion protein of N-terminal Glutathion-S-Transferase (GST) and full-length human CSNK1A1, expressed by baculovirus infected insect cells and purified via Glutathion affinity chromatography, was purchased from Life Technologies (product no. PV4174) and used as enzyme. As substrate for the kinase reaction the biotinylated peptide biotin-Ahx-KRRRAL-pS-VASLPGL (C-terminus in amide form) was used which can be purchased e.g. from the company Biosyntan (Berlin-Buch, Germany).
For the assay 50 nl of a 100 fold concentrated solution of the test compound in DMSO was pipetted into a white 1536-well microtiter plate (Greiner Bio-One, Frickenhausen, Germany), 2 μL of a solution of CSNK1A1 in aqueous assay buffer [50 mM HEPES pH 7.5, 10% (v/v) glycerol, 10 mM MgCl2, 50 mM NaCl, 1 mM dithiothreitol, 0.01% (w/v) bovine serum albumin, 0.01% (v/v) Triton X-100] were added and the mixture was incubated for 15 min at 22° C. to allow pre-binding of the test compounds to the enzyme before the start of the kinase reaction. […] The concentration of CSNK1A1 was adjusted depending of the activity of the enzyme lot and was chosen appropriate to have the assay in the linear range, a typical concentrations are about 0.0375 ng/μL. The reaction was stopped by the addition of 2.5 μL of “ADP-Glo-reagent” (1:1.5 fold diluted with water) and the resulting mixture was incubated at 22° C. for 1 h to convert the ATP not consumed in the kinase reaction completely […]. Subsequently 2.5 μL of the “kinase detection reagent” (1.2 fold more concentrated than recommended by the producer) were added, the resulting mixture was incubated at 22° C. for 1 h and then the luminescence measured with a suitable measurement instrument (e.g. Viewlux™ from Perkin-Elmer). The amount of emitted light was taken as a measure for the amount of ADP generated and thereby for the activity of the CSNK1A1.

Test [4] addresses human CSNK1D (Homo sapiens (Human), UniProt P48730). The experiment in a line: CSNK1D Assay (ADP-Glo, 1 μM ATP). The settings on record: read-out: CSNK1D IC50 [mol/l] (median). How it is done:
CSNK1 D-inhibitory activity of compounds of the present invention in presence of 1 μM adenosine-tri-phosphate (ATP) was quantified employing the CSNK1D assay as described in the following paragraphs. In essence, the enzyme activity is measured by quantification of the adenosine-di-phosphate (ADP), which is generated as a co-product of the enzyme reaction, via the “ADP-Glo™ Kinase Assay” kit from the company Promega. This detection system works as follows: In a first step the ATP not consumed in the kinase reaction is quantitatively converted to cAMP employing an adenylate cyclase (“ADP-Glo-reagent”), then the adenylate cyclase is stopped and the ADP generated in the kinase reaction converted to ATP which generates in a luciferase-based reaction a glow-luminescence signal (“Kinase Detection Reagent”). Recombinant fusion protein of N-terminal Glutathion-S-Transferase (GST) and full-length human CSNK1D, expressed by baculovirus infected insect cells and purified via Glutathion affinity chromatography, was purchased from Life Technologies (product no. PV3665) and used as enzyme. As substrate for the kinase reaction the biotinylated peptide Btn-Ahx-[…] (C-terminus in amide form) was used which can be purchased e.g. from the company Biosyntan (Berlin-Buch, Germany).
For the assay 50 nl of a 100 fold concentrated solution of the test compound in DMSO was pipetted into a white 1536-well microtiter plate (Greiner Bio-One, Frickenhausen, Germany), 2 μL of a solution of CSNK1D in aqueous assay buffer [50 mM HEPES pH 7.5, 10% (v/v) glycerol, 10 mM MgCl2, 50 mM NaCl, 1 mM dithiothreitol, 0.01% (w/v) bovine serum albumin, 0.01% (v/v) Triton X-100] were added and the mixture was incubated for 15 min at 22° C. to allow pre-binding of the test compounds to the enzyme before the start of the kinase reaction. […] The concentration of CSNK1 D was adjusted depending of the activity of the enzyme lot and was chosen appropriate to have the assay in the linear range, a typical concentration is about 0.5 ng/μL. The reaction was stopped by the addition of 2.5 μL of “ADP-Glo-reagent” (1:1.5 fold diluted with water) and the resulting mixture was incubated at 22° C. for 1 h to convert the ATP not consumed in the kinase reaction completely […]. Subsequently 2.5 μL of the “kinase detection reagent” (1.2 fold more concentrated than recommended by the producer) were added, the resulting mixture was incubated at 22° C. for 1 h and then the luminescence measured with a suitable measurement instrument (e.g. Viewlux™ from Perkin-Elmer). The amount of emitted light was taken as a measure for the amount of ADP generated and thereby for the activity of the CSNK1D.

Where [5] appears, read: EGFR Wildtyp- 2 mM ATP IC50 [mol/l] (median).
The mark [6] stands for this setting: read-out: EGFR Wildtyp- 2 mM ATP IC50 [mol/l] (median).

T1 sequence (P48729 whole entry): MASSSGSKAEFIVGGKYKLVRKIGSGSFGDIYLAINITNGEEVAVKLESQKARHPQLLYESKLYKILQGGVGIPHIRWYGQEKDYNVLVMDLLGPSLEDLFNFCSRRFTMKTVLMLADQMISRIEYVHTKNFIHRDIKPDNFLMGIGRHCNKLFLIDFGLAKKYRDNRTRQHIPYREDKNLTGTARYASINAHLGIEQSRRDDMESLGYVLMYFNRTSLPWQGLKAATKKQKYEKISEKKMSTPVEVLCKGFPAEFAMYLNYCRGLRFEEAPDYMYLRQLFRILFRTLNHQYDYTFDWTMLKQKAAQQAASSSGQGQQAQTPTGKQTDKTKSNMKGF
human CSNK1D, sequence (P48730 whole entry): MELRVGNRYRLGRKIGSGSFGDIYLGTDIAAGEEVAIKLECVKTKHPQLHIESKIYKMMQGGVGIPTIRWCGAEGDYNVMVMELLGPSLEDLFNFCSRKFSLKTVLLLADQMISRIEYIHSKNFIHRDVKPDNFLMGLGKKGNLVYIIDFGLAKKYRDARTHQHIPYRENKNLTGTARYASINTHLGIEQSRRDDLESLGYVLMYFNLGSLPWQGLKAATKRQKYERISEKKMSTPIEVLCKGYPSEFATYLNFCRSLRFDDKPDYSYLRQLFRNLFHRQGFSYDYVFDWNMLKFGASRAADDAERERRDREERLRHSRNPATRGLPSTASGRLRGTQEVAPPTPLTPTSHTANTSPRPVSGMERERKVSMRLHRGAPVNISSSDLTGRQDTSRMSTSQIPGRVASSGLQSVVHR

In the case of `CN1CCc2[nH]c(-c3ccnc(NC(=O)C(CCN4CCOCC4)c4ccccc4)c3)c(Nc3ccccc3)c2C1=O` (single isomer, unassigned) [Example 31, N-[4-(3-anilino-5-methyl-4-oxo-4,5,6,7-tetrahydro-1H-pyrrolo[3,2-c]pyridin-2-yl)pyridin-2-yl]-4-(morpholin-4-yl)-2-phenylbutanamide], the IC50 in test [1] is 249 nM; in test [2] (setting [5]), greater than 20000 nM; in test [3], 3.85 nM.
As for `CN1CCc2[nH]c(-c3ccnc(NC(=O)C(CCN4CCOCC4)c4ccccc4)c3)c(Nc3ccccc3)c2C1=O` (single isomer, unassigned) [Example 32, N-[4-(3-anilino-5-methyl-4-oxo-4,5,6,7-tetrahydro-1H-pyrrolo[3,2-c]pyridin-2-yl)pyridin-2-yl]-4-(morpholin-4-yl)-2-phenylbutanamide], the results for the IC50 in test [1], in test [2] (setting [6]) and in test [3] were 4560 nM, greater than 20000 nM and 72.2 nM, respectively.
For `CN1CCc2[nH]c(-c3ccnc(NC(=O)C(CC(F)F)c4ccccc4)c3)c(Nc3ccccc3)c2C1=O` (single isomer, unassigned) [Example 34, N-[4-(3-anilino-5-methyl-4-oxo-4,5,6,7-tetrahydro-1H-pyrrolo[3,2-c]pyridin-2-yl)pyridin-2-yl]-4,4-difluoro-2-phenylbutanamide], the IC50 is 16.5 nM in test [1], greater than 20000 nM in test [2] (setting [5]) and 2.68 nM in test [3].
As for `CN1CCc2[nH]c(-c3ccnc(NC(=O)C(CC(F)F)c4ccccc4)c3)c(Nc3ccccc3)c2C1=O` (single isomer, unassigned) [Example 35, N-[4-(3-anilino-5-methyl-4-oxo-4,5,6,7-tetrahydro-1H-pyrrolo[3,2-c]pyridin-2-yl)pyridin-2-yl]-4,4-difluoro-2-phenylbutanamide], the IC50 came to 705 nM in test [1], 14800 nM in test [2] (setting [5]) and 20.5 nM in test [3].
Regarding `CC(C(=O)Nc1cc(-c2[nH]c3c(c2Nc2ccccc2)C(=O)NC(C)(C)C3)ccn1)c1ccc(F)cc1` (single isomer, unassigned; (+)) [Example 40, (+)-N-[4-(3-anilino-6,6-dimethyl-4-oxo-4,5,6,7-tetrahydro-1H-pyrrolo[3,2-c]pyridin-2-yl)pyridin-2-yl]-2-(4-fluorophenyl)propanamide], the IC50 stood at 51.7 nM in test [1], 10.5 nM in test [4] and 4.59 nM in test [3].
For the compound `CN1C(=O)c2c([nH]c(-c3ccnc(NC(=O)C(CC(F)F)c4ccc(F)cc4)c3)c2Nc2ccccc2)CC12CCC2` (single isomer, unassigned; enantiomer 1) [Example 161, (−)-N-[4-(3′-anilino-5′-methyl-4′-oxo-1′,4′,5′,7′-tetrahydrospiro[cyclobutane-1,6′-pyrrolo[3,2-c]pyridin]-2′-yl)pyridin-2-yl]-4,4-difluoro-2-(4-fluorophenyl)butanamide (Enantiomer 1)], the IC50 is > 20000 nM and 19100 nM and 10600 nM and 14600 nM in test [1]; greater than 20000 nM in test [2] (setting [5]); 360 nM in test [4].
With `CN(C)CCC(C(=O)Nc1cc(-c2[nH]c3c(c2Nc2ccccc2)C(=O)N(C)CC3)ccn1)c1ccccc1` (centres unmarked) [Example 38, N-[4-(3-anilino-5-methyl-4-oxo-4,5,6,7-tetrahydro-1H-pyrrolo[3,2-c]pyridin-2-yl)pyridin-2-yl]-4-(dimethylamino)-2-phenylbutanamide], the IC50 in test [1] came out at 1290 nM; in test [2] (setting [6]), 6690 nM; in test [3] it was 14.6 nM.
Compound `Cc1ccccc1Nc1c(-c2ccnc(NC(=O)Cc3ccc(F)cc3)c2)[nH]c2c1C(=O)NC(C)(C)C2` [Example 113, N-{4-[6,6-dimethyl-3-(2-methylanilino)-4-oxo-4,5,6,7-tetrahydro-1H-pyrrolo[3,2-c]pyridin-2-yl]pyridin-2-yl}-2-(4-fluorophenyl)acetamide] had an IC50 in test [2] (setting [5]) greater than 5710 nM.
In turn, `CC1(C)Cc2[nH]c(-c3ccnc(NC(=O)Cc4ccc(F)cc4)c3)c(Nc3cccc(F)n3)c2C(=O)N1` [Example 127, 2-(4-fluorophenyl)-N-(4-{3-[(6-fluoropyridin-2-yl)amino]-6,6-dimethyl-4-oxo-4,5,6,7-tetrahydro-1H-pyrrolo[3,2-c]pyridin-2-yl}pyridin-2-yl)acetamide-1,1′,1″-phosphoryltripyrrolidine salt] gave an IC50 in test [2] (setting [5]) of 16900 nM.
